Laboratory results: US8609649B2, “Compositions and methods for the diagnosis, treatment, and prevention of amyotrophic lateral sclerosis and related neurological diseases” (Brandeis University, priority 2007, dated 2013)
Values belong to the compound of their own block, whether it stands above or below them.

Assays:
diabetic rats = conditions: cited from earlier work
[1] = system: humans with systolic hypertension and moderately severe diastolic heart failure; conditions: 16 weeks, 23 humans; cited from earlier work
hypertensive subjects = conditions: 93 hypertensive subjects age greater than 50 years, compared with placebo; cited from earlier work
[2] = system: diabetic hyperlipidemic mice; conditions: cited from earlier work
[3] = cited from earlier work
SOD-1 Cys111 = SOD-1 Cys111 (Homo sapiens, UniProt P00441); test: Intersubunit crosslinking of SOD-1; format: biochemical; conditions: FIG. 16
AGE formation = conditions: in vitro; cited from earlier work
[4] = humans; cited from earlier work
mice = conditions: cited from earlier work
proteasome = test: Proteasome activity in SOD-1-expressing stably transfected NIH/3T3 cell lines; format: cell-based; conditions: NIH/3T3 cell lines expressing the SOD-1 variant
Text: Therefore, one aspect of the invention relates to monitoring proteasome activity to screen for potential ALS therapeutic compounds. FIG. 2 illustrates the results of using SOD-1 expressing cells (eG93A SOD-1 expressing clones; wild-type SOD-1 expressing clones; and […] G93A SOD-1 expressing clones) for said purpose. In certain embodiments, the assay involves administration of different concentrations of a given compound to G93A- and wild-type SOD-1 cell lines, and assaying proteasome activity. Successful compounds, in analogy to […]/G93A double mutant (FIG. 2), will relieve G93A SOD-1 associated proteasome inhibition. […] With successful hits, SOD-1 protein can be immunopurified from cell cultures to determine if there is any direct chemical bonding to SOD-1. pcDNA-3 vector with wild-type SOD-1, G93A SOD-1, […] SOD-1, […] G93A SOD-1 cDNA sequence were prepared by standard site-directed mutagenesis techniques. NIH/3T3 cells were maintained in Dulbecco's modified Eagle's medium (ATCC, Mannassas, Va.) supplemented with 10% newborn calf serum (Invitrogen, Carlsbad, Calif.). Cells were transfected with the plasmids using Lipofectamine 2000 (Invitrogen, Carlsbad, Calif.). A mock transfection was performed and cells were transfected under the same conditions but using either empty pcDNA-3 expression vector or no vector (to test the efficiency of selection). […]

cultured motor neurons [5] = test: Viability of motor neurons microinjected with plasmid encoding SOD-1 variants; format: cell-based, mouse; conditions: motor neurons expressing the SOD-1 variant, 10 days of observation, linear curve fit
Text: (§1) Dissociation of spinal cord-dorsal root ganglia from embryonic day 13 CD 1 mice (Charles River Laboratories, Wilmington, Mass.), plating on poly-D-lysine-coated coverslips, culture media, and identification of motor neurons were as previously described. Roy, J., Minotti, S., Dong, L., Figlewicz, D. A., and Durham, H. D. (1998) J. Neurosci. 18, 9673-9684. Cultures were used 3-6 weeks after plating.
(§2) Subcloning of SOD-1G93A and SOD-1 wt cDNAs into the BamHI/HindIII sites of pcDNA3 (Invitrogen) was performed previously using cDNAs provided by Dr. Denise Figlewicz (University of Michigan, Ann Arbor, Mich.). Wang, J., Xu, G., and Borchelt, D. R. (2002) Neurobiol. Dis. 9, 139-148. Trp 4 Phe (W32F) mutations were created by site-specific mutagenesis of SOD-1 G93A and SOD-1 wt (TOP Gene Technologies, Quebec, Canada), producing SOD-1 W32F/G93A and SOD-1 W32F mutants, respectively. Intranuclear microinjection of plasmids was used to express SOD-1 constructs in motor neurons and to assess their effects on the survival and formation of inclusions as previously described Durham, H. D., Roy, J., Dong, L., and Figlewicz, D. A. (1997) J. Neuropathol. Exp. Neurol. 56, 523-530.
For viability experiments, motor neurons containing the co-injected fluorescent marker were counted daily under epifluorescence microscopy beginning 24 h post-microinjection. The number of motor neurons was expressed as a percentage of those present at 24 h to exclude those dying from injury during microinjection. The morphology of each cell was also evaluated by phase microscopy. All experiments involved a minimum of six cultures per condition with 20-80 motor neurons (average of 40) analyzed per culture. All experimental groups were analyzed simultaneously using cultures from the same batch, but each set of conditions was assessed for reproducibility in more than one culture batch. For viability experiments, injectates were coded by an independent researcher, and cell counts for viability were carried out blind to the identity of the experimental condition. Rates of cell death were calculated by a linear curve fit of the data (see FIG. 11) and are expressed as the percentage of death/day. The lowest observed linear regression r2 value was 0.94, and the average value was 0.96.
For the survival assays, statistical significance was determined using analysis of variance between groups (SigmaStat, Systat Software, Inc., Point Richmond, Calif.). Significance was established at p less than or equal to 0.05. Data for percentage of motor neurons with inclusions were tested for normal distribution and then compared using a one-tailed, two-sample t test for equal means under the assumption of unequal variance. A null hypothesis of equal means was rejected when p is less than or equal to 0.05.

cultured motor neurons [6] = test: SOD-1-positive cytoplasmic inclusions in microinjected motor neurons; format: cell-based, mouse
Text: as §1
as §2, with “523-530. […]” for “523-530.”
For the survival assays, statistical significance was determined using analysis of variance between groups (SigmaStat, Systat Software, Inc., Point Richmond, Calif.). […]

[7] = 12 weeks therapy, diabetic hypertensive rats

Chain of SOD-1 Cys111 (P00441 2-154 limits assumed): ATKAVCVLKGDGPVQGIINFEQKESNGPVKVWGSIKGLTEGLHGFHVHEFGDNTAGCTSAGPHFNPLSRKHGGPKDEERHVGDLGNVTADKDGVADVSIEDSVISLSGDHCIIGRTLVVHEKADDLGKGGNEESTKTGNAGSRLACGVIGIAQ

Compound: Cc1sc[n+](CC(=O)c2ccccc2)c1C.[Cl-] [ALT-711, alagebrium chloride]
levels of AGEs, RAGE expression, diabetic nephropathy, myocardial stiffness (diabetic rats; diabetic rats): decrease
left ventricular mass, left ventricular filling, patient ratings of quality of life [1]: decreased left ventricular mass, improved left ventricular filling, and improved patient ratings of quality of life
pulse pressure and arterial stiffness (hypertensive subjects): significant reduction
atherosclerosis, cholesterol and systolic blood pressure [2]: attenuated atherosclerosis and decreased cholesterol and systolic blood pressure

Compound: CC(=O)NCCNC(=N)NN.Cl [ALT-946, N-(2-acetamidoethyl)hydrazinecarboximidamide hydrochloride]
decrease of albuminuria compared with aminoguanidine therapy (diabetic rats; [7]): 250%
renal AGEs by histologic analysis (diabetic rats; [7]): reduce renal AGEs
albuminuria (diabetic rats; rat model, used at the onset of diabetes and initiated after 16 weeks of diabetes): reduced albuminuria

Compound: N=C(N)NN [Aminoguanidine]
nephropathy, retinopathy, and vessel elasticity (diabetic rats; diabetic rats): improve
incidence of glomerulonephritis ([3]; higher dose): increased incidence
proteinuria ([3]; lower dose, P<0.001): equally effective
retinopathy progression ([3]; lower dose, P=0.03): preventing retinopathy progression
serious side effects ([3]; lower dose): free of serious side effects

intersubunit crosslinking of SOD-1 Cys111 (SOD-1 Cys111): intersubunit crosslinking
Compound: O=C1C=CC(=O)N1CCSSCCN1C(=O)C=CC1=O [DTME]

intersubunit crosslinking of SOD-1 Cys111 (SOD-1 Cys111): intersubunit crosslinking
Compound: C=CS(=O)(=O)CCCCCCS(=O)(=O)C=C [HBVS]

Compound: CN(C)C(=N)N=C(N)N [Metformin]
AGE formation (AGE formation): prevent AGE formation

Compound: O=C(C[n+]1ccsc1)c1ccccc1.[Br-] [N-phenacylthiazolium bromide]
AGEs (diabetic rats; diabetic rat models): decrease AGEs
nephropathy as measured by proteinuria (diabetic rats; diabetic rat models): has not decreased nephropathy

Compound: Cc1ncc(CO)c(CN)c1O [Pyridoxamine]
cholesterol levels (diabetic rats; compared with aminoguanidine): lowered cholesterol levels more than aminoguanidine
diabetic nephropathy (diabetic rats; compared with aminoguanidine): inhibited diabetic nephropathy equally to aminoguanidine
AGE formation (diabetic rats; nondiabetic and diabetic rats): retarded AGE formation
weight (diabetic rats; nondiabetic and diabetic rats): mild weight loss

Compound: CCCCC1=NC2(CCCC2)C(=O)N1Cc1ccc(-c2ccccc2-c2nnn[nH]2)cc1 [irbesartan]
vascular inflammation [4]: decreased vascular inflammation
AGE formation (AGE formation): effective in vitro at decreasing AGE formation

Compound: CCCCc1nc(Cl)c(CO)n1Cc1ccc(-c2ccccc2-c2nn[nH]n2)cc1 [losartan]
AGE formation (AGE formation): effective in vitro at decreasing AGE formation

Compound: CCC[C@H](N[C@@H](C)C(=O)N1[C@H](C(=O)O)C[C@@H]2CCCC[C@@H]21)C(=O)OCC [perindopril]
RAGE levels [4]: decreased RAGE levels
atherosclerosis (mice): inhibited atherosclerosis

Compound: CCCc1nc2c(C)cc(-c3nc4ccccc4n3C)cc2n1Cc1ccc(-c2ccccc2C(=O)O)cc1 [telmisartan]
AGE formation (AGE formation): effective in vitro at decreasing AGE formation

Compound: O=C(O)CN1C[C@@H](c2cccs2)SC[C@H](N[C@@H](CCc2ccccc2)C(=O)O)C1=O [temocaprilat]
AGE formation (AGE formation): effective in vitro at decreasing AGE formation

Compound: CCCCC(=O)N(Cc1ccc(-c2ccccc2-c2nnn[nH]2)cc1)[C@H](C(=O)O)C(C)C [valsartan]
AGE formation (AGE formation): effective in vitro at decreasing AGE formation

Compound: SOD-1^G93A: disease-causing mutant copper/zinc superoxide dismutase with the G93A mutation
proteasome activity (proteasome): near complete inhibition
rate of death of motor neurons (cultured motor neurons [5]): 6.8 %/day

Compound: SOD-1^W32F/G93A: SOD-1 with the double mutation W32F and G93A
percentage of motor neurons with SOD-1 inclusions (cultured motor neurons [6]; days 5 and 7, versus SOD-1G93A): No significant difference
percentage of motor neurons with SOD-1 inclusions (cultured motor neurons [6]; post-microinjection day 3, versus SOD-1G93A, p<0.005): significantly lower proportion
rate of death of motor neurons (cultured motor neurons [5]): 3.6 %/day

Compound: SOD-1^W32F: SOD-1wt with Trp-32 replaced with Phe
rate of death of motor neurons (cultured motor neurons [5]): 4.3 %/day

Compound: SOD-1^wt: wild-type human copper/zinc superoxide dismutase
rate of death of motor neurons (cultured motor neurons [5]): 3.0 %/day
